Data from patent publication US20220202801A1, “USE OF COMPOUND IN PREPARATION OF DRUG FOR TREATING ATHEROSCLEROSIS” (GenEros Biopharma Ltd., priority 2019, published 2022).

Key:
[1] = system: atherosclerotic lesions in ApoE knockout mice; experiment: Aortic HE and oil red O staining, atherosclerotic lesion scores (Example 1); format: in vivo
Text: (§1) Methods: SPF grade C57BL/6 ApoE −/−model mice were provided by Guangdong Medical Experimental Animal Center, laboratory animal production license No. SOCK (Guangdong) 2013-0002. Laboratory animal quality certificate number: 44007200048196). Mice were half male and half female, aged 8 to 12 weeks, and 72 animals in total. After four weeks of housing in a SPF-level animal facility, animals with less body weights were disposed. A total of 64 animals were randomly divided into 8 groups, 8 in each group, fed with 10% high-fat food, and received with different treatments. Animals were observed and administered with the medicines by gavage once daily. The body weights were measured once a week and continued for 58 days. […] The test sample was dissolved in dimethyl sulfoxide solution and prepared with 30% PEG300.
(§2) After blood collection, the animals were sacrificed, and the aortic arch together with the heart and thoracic aorta were fixed with neutral formaldehyde and subject to pathological examination. The abdominal aorta was collected and quick-frozen in liquid nitrogen, and stored at −80° C.
a) HE staining: aortic arch was sliced and HE stained. The plaques were observed under optical microscope.
b) Oil red O staining: aortic arch was sliced and oil red O stained. The plaques were observed under optical microscope.

ICAM-1 = experiment: Immunohistochemistry of aortic wall, ICAM-1; format: in vivo, mice; conditions: IHC-P×400, single animal micrograph, 20 mg/kg
Text: as §1, §2
(§3) c) Immunohistochemistry: The thoracic aorta was sliced and detected by immunohistochemistry for the expression of CD68, intercellular adhesion molecule-1 (ICAM-1), and vascular cell adhesion Molecule-1 (VCAM-1).

CD68 = experiment: Immunohistochemistry of aortic wall, CD68; format: in vivo, mice; conditions: IHC-P×400, single animal micrograph, 20 mg/kg
Text: as §1, §2, §3

ApoE knockout mice [2] = experiment: Four blood lipids in serum of ApoE knockout mice (Example 1); format: in vivo; conditions: serum
Text: as §1
At the end of the experiment, animals were anesthetized with pentobarbital sodium. Blood was collected from the orbital venous plexus, and centrifuged at 3000 r/min at a low temperature for 10 min to separate the serum. The levels of total cholesterol TC, triglyceride TG, high-density lipoprotein HDL-C, and low-density lipoprotein LDL-C were measured, and the remaining serum was stored in a refrigerator at −80° C.
Statistical analysis: Data were expressed as the mean plus or minus the standard deviation (x± s), and analyzed by SPSS21.0 statistical software. […] The level of test is α=0.05.

ApoE knockout mice [3] = experiment: Blood lipid metabolism TG, TCHO, HDL-c, LDL-c (Example 2); format: in vivo
Text: Methods: A total of 130 SPF grade C57BL/6 ApoE −/− model male mice aged 8 weeks were purchased from Charles River Laboratories (Beijing, China) (animal license number: SCXK (Beijing) 2016-0001, animal qualification certificate No.: 11400700331337). After one week of acclimatization in a SPF-grade animal facility, the animals with less weights were discarded and the rest was randomly divided into 11 groups, with 8 animals in each group. Except for the healthy control group, the rest were fed with 10% high-fat food (the first day of the high-fat diet was recorded as D1). Starting from the 8th week of the high-fat diet, each group of animals was orally given solvents or corresponding drugs, and the volume of administration was 10 ml/kg, once a day for 8 weeks. Animals were observed and administered by gavage once a day and the body weight were measured once a week for 56 days. […] The store solution of the test samples was dissolved in dimethyl sulfoxide solution and prepared with 30% PEG300.
At the end of the experiment, the animals were euthanized by inhalation of carbon dioxide. Blood was taken from the heart, and centrifuged at 3000 r/min at a low temperature centrifuge for 10 min to separate the serum. The levels of total cholesterol TC, triglyceride TG, high-density lipoprotein HDL-C, and low-density lipoprotein LDL-C were measured, and the remaining serum was stored in a refrigerator at −80° C.
Before the start of the experiment, animal blood samples were analyzed for blood lipid metabolism, including conventional triglyceride (TG), total cholesterol (TCHO), high-density lipoprotein (HDL-c) and low-density lipoprotein (LDL-c). After high-fat or ordinary food feeding for 8 weeks, the blood lipid levels were measured again. After the drug treatment was started, blood lipid measurements were performed every four weeks until the end of the experiment.

[4] = Body weight of ApoE knockout mice on high-fat food (Example 1); format: in vivo; conditions: 20 mg/kg gavage QD
Text: as §1
Statistical analysis: Data were expressed as the mean plus or minus the standard deviation (x± s), and analyzed by SPSS21.0 statistical software. The weight data of each group were compared by repeated measures analysis of variance; the blood lipid levels of the statin treatment group were compared with the model control group by independent sample T test; the blood lipid levels of the test samples A and B were compared with the model control group by one-way analysis of variance, and LSD method was used for the comparison among groups. The level of test is α=0.05.

VCAM-1 = experiment: Immunohistochemistry of aortic wall, VCAM-1; format: in vivo, mice; conditions: IHC-P×400, single animal micrograph, 20 mg/kg
Text: as §1, §2, §3

[5] = of 8 animals, 20 mg/kg body weight
[6] = half male and female, 20 mg/kg body weight
[7] = ♀, 20 mg/kg gavage QD, 58 days, 20 mg/kg
[8] = ♀, 20 mg/kg gavage QD, 58 days, listed as statin, 20 mg/kg
[9] = ♂, 20 mg/kg gavage QD, 58 days, 20 mg/kg
[10] = ♂, 20 mg/kg gavage QD, 58 days, listed as statin, 20 mg/kg

With CC(C)c1c(C(=O)Nc2ccccc2)c(-c2ccccc2)c(-c2ccc(F)cc2)n1CC[C@@H](O)C[C@@H](O)CC(=O)[O-].CC(C)c1c(C(=O)Nc2ccccc2)c(-c2ccccc2)c(-c2ccc(F)cc2)n1CC[C@@H](O)C[C@@H](O)CC(=O)[O-].[Ca+2] [Statin, Atorvastatin calcium, reference compound] the “Mild n (number of animal cases with mild lesions)” value [1, 5] was 0, the “Moderate n (number of animal cases with moderate lesions)” value [1, 5] was 3 and the “No lesion n (number of animal cases)” value [1, 5] was 3. The “Severe n (number of animal cases with severe lesions)” value [1, 5] was 2, the “animals that had atherosclerosis (histological observation)” value ([1]; of 8 aortas examined, 20 mg/kg) was 5 cases and the “Scores (atherosclerotic lesion score, average of the group)” value ([1]; score 0-3 per Table 8, 20 mg/kg body weight) was 1.50 ± 1.31. The “aorta (ICAM-1) signal expression in blood vessels” value (ICAM-1) was “low to medium”, the “aorta (CD68) signal expression in blood vessels” value (CD68) was “low to medium” and the LDL-C (ApoE knockout mice [2]; [6]) was 5.60 ± 1.19 mmol/L. For the same compound, the TC (ApoE knockout mice [2]; [6]) was 18.15 ± 2.38 mmol/L, the TG (ApoE knockout mice [2]; half male and female, 20 mg/kg body weight, 20 mg/kg) was 0.71 ± 0.19 mmol/L and the TG (ApoE knockout mice [2]; half male and female, 20 mg/kg body weight, listed as statin, 20 mg/kg) was “lower”. The LDL-C (ApoE knockout mice [2]; ♀, 20 mg/kg gavage QD, 58 days) was 5.03 ± 0.57 mmol/L, the HDL-C (ApoE knockout mice [2]; [7]) was 1.44 ± 0.09 mmol/L and the TC (ApoE knockout mice [2]; [7]) was 16.85 ± 1.76 mmol/L. For the same compound, the TG (ApoE knockout mice [2]; [7]) was 0.65 ± 0.06 mmol/L, the HDL-C (ApoE knockout mice [2]; [8]) was “reduced to varying degrees, but there was no statistical difference” and the TC (ApoE knockout mice [2]; [8]) was “reduced to varying degrees, but there was no statistical difference”. For the same compound, the TG (ApoE knockout mice [2]; [8]) was “reduced to varying degrees, but there was no statistical difference”, the LDL-C (ApoE knockout mice [2]; ♂, 20 mg/kg gavage QD, 58 days) was 6.17 ± 1.46 mmol/L and the HDL-C (ApoE knockout mice [2]; [9]) was 1.92 ± 0.62 mmol/L. For the same compound, the TC (ApoE knockout mice [2]; [9]) was 19.45 ± 2.37 mmol/L, the TG (ApoE knockout mice [2]; [9]) was 0.78 ± 0.27 mmol/L and the HDL-C (ApoE knockout mice [2]; [10]) was “lower”. The TC (ApoE knockout mice [2]; [10]) was “lower”, the TG (ApoE knockout mice [2]; [10]) was “lower” and the “effect on total cholesterol (TCHO) level compared with the vehicle group” value (ApoE knockout mice [3]) was “reduce”. For the same compound, the “effect on triglyceride (TG) level compared with the vehicle group” value (ApoE knockout mice [3]) was “increase”, the body weight ([4]; d1, half male and female) was 25.1 ± 4.2 g and the body weight ([4]; d1, ♀) was 21.2 ± 0.9 g. For the same compound, the body weight ([4]; d1, ♂) was 28.9 ± 1.2 g, the body weight ([4]; d8, half male and female) was 25.4 ± 3.8 g and the body weight ([4]; d8, ♀) was 22.0 ± 0.6 g. For the same compound, the body weight ([4]; d8, ♂) was 28.9 ± 0.9 g, the body weight ([4]; d15, half male and female) was 25.3 ± 4.1 g and the body weight ([4]; d15, ♀) was 21.5 ± 0.7 g. The body weight ([4]; d15, ♂) was 29.0 ± 1.1 g, the body weight ([4]; d22, half male and female) was 25.2 ± 4.2 g and the body weight ([4]; d22, ♀) was 21.4 ± 0.6 g. It also gave a body weight ([4]; d22, ♂) of 29.0 ± 1.4 g, a body weight ([4]; d29, half male and female) of 25.2 ± 4.2 g and a body weight ([4]; d29, ♀) of 21.4 ± 0.6 g. It also gave a body weight ([4]; d29, ♂) of 29.1 ± 1.2 g, a body weight ([4]; d36, half male and female) of 25.7 ± 3.8 g and a body weight ([4]; d36, ♀) of 22.2 ± 0.9 g. The body weight ([4]; d36, ♂) was 29.2 ± 1.0 g, the body weight ([4]; d43, half male and female) was 26.0 ± 3.9 g and the body weight ([4]; d43, ♀) was 22.4 ± 0.5 g. It also gave a body weight ([4]; d43, ♂) of 29.6 ± 0.8 g, a body weight ([4]; d50, half male and female) of 26.5 ± 3.7 g and a body weight ([4]; d50, ♀) of 23.1 ± 0.9 g. For the same compound, the body weight ([4]; d50, ♂) was 29.8 ± 0.6 g, the body weight ([4]; d57, half male and female) was 26.4 ± 4.1 g and the body weight ([4]; d57, ♀) was 22.7 ± 0.8 g. For the same compound, the body weight ([4]; d57, ♂) was 30.0 ± 1.6 g, the body weight ([4]; d58, half male and female) was 26.2 ± 3.8 g and the body weight ([4]; d58, ♀) was 22.8 ± 0.5 g. For the same compound, the body weight ([4]; d58, ♂) was 29.7 ± 1.4 g and the “aorta (VCAM-1) signal expression in blood vessels” value (VCAM-1) was “low to medium”.
